The values that follow are results of earlier work, collected in PubChem BioAssay AID1259409 (Chemical Carcinogenesis Research Information System (CCRIS), 2018).

This data set relates to rodent chemically induced tumor inhibition, incidence and multiplicity. Put plainly: CCRIS tumor inhibitor studies.

Regarding `S=C=NCCCCCCc1ccccc1`, the “tumour outcome (control, treated, inhibition, significance)” value (Carcinogen: 4-(METHYLNITROSAMINO)-1-(3-PYRIDYL)-1-BUTANONE, 64091-91-4, Dose [Inhibitor]: 0, 1 UMOL/G DIET FOR DURATION OF STUDY BEGINNING 1 WK PRIOR TO CARCINOGEN TREATMENT (STUDY DURATION: 112 WK), Route [Inhibitor]: ORAL, Species: RAT, Strain/Sex: F344/MALE, Target Tissue: Type of Lesion: PANCREAS: ACINAR ADENOMA, Dose [Carcinogen]: 2 PPM IN DRINKING WATER FOR 111 WK, Promoter: NONE USED) is recorded as 1/52 (2%), 6/50 (12%), -500%, p=0.04; the “tumour outcome (control, treated, inhibition, significance)” value (Carcinogen: 4-(METHYLNITROSAMINO)-1-(3-PYRIDYL)-1-BUTANONE, 64091-91-4, Dose [Inhibitor]: 0, 1 UMOL/G DIET FOR DURATION OF STUDY BEGINNING 1 WK PRIOR TO CARCINOGEN TREATMENT (STUDY DURATION: 112 WK), Route [Inhibitor]: ORAL, Species: RAT, Strain/Sex: F344/MALE, Target Tissue: Type of Lesion: PANCREAS: MALIGNANT TUMOR, Dose [Carcinogen]: 2 PPM IN DRINKING WATER FOR 111 WK, Promoter: NONE USED) is on record as 4/52 (8%), 1/50 (2%), 75%, not significant; the “tumour outcome (control, treated, inhibition, significance)” value (Carcinogen: 4-(METHYLNITROSAMINO)-1-(3-PYRIDYL)-1-BUTANONE, 64091-91-4, Dose [Inhibitor]: 0, 5 UMOL IN 0.1 ML CORN OIL ONCE 2 HR PRIOR TO CARCINOGEN DOSE (STUDY DURATION: 16 WK), Route [Inhibitor]: GAVAGE, Species: MOUSE, Strain/Sex: STRAIN-A/FEMALE, Target Tissue: Type of Lesion: LUNG: ADENOMA, Dose [Carcinogen]: 10 UMOL IN 0.1 ML SALINE ONCE, Promoter: NONE USED) is 100%, 25%, 75%, p<0.01; the “tumour outcome (control, treated, inhibition, significance)” value (Carcinogen: 4-(METHYLNITROSAMINO)-1-(3-PYRIDYL)-1-BUTANONE, 64091-91-4, Dose [Inhibitor]: 0, 438 PPM IN DIET FOR 22 WK BEGINNING 1 WK PRIOR TO CARCINOGEN DOSE (STUDY DURATION: 98 WK), Route [Inhibitor]: ORAL, Species: RAT, Strain/Sex: F344/MALE, Target Tissue: Type of Lesion: NASAL CAVITY: TUMOR, Dose [Carcinogen]: 1.5 MG/KG BW 3/WK FOR 20 WK, Promoter: NONE USED) is 28/36 (78%), 27/36 (75%), 4%, not significant; the “tumour outcome (control, treated, inhibition, significance)” value (Carcinogen: 4-(METHYLNITROSAMINO)-1-(3-PYRIDYL)-1-BUTANONE, 64091-91-4, Dose [Inhibitor]: 0, 438 PPM IN DIET FOR 22 WK BEGINNING 1 WK PRIOR TO CARCINOGEN TREATMENT (STUDY DURATION: 98 WK), Route [Inhibitor]: ORAL, Species: RAT, Strain/Sex: F344/MALE, Target Tissue: Type of Lesion: LUNG: TUMOR, Dose [Carcinogen]: 1.5 MG/KG BW 3/WK FOR 20 WK, Promoter: NONE USED) is reported as 22/33 (67%), 7/36 (19%), 72%, p<0.01; the “tumour outcome (control, treated, inhibition, significance)” value (Carcinogen: 4-(METHYLNITROSAMINO)-1-(3-PYRIDYL)-1-BUTANONE, 64091-91-4, Dose [Inhibitor]: 0, 876 PPM IN DIET FOR 22 WK BEGINNING 1 WK PRIOR TO CARCINOGEN TREATMENT (STUDY DURATION: 98 WK), Route [Inhibitor]: ORAL, Species: RAT, Strain/Sex: F344/MALE, Target Tissue: Type of Lesion: LUNG: TUMOR, Dose [Carcinogen]: 1.5 MG/KG BW 3/WK FOR 20 WK, Promoter: NONE USED) was 22/33 (67%), 8/34 (24%), 64%, p<0.01. Further, the “tumour outcome (control, treated, inhibition, significance)” value is, setting by setting: (Carcinogen: 4-(METHYLNITROSAMINO)-1-(3-PYRIDYL)-1-BUTANONE, 64091-91-4, Dose [Inhibitor]: 0, 876 PPM IN DIET FOR 22 WK BEGINNING 1 WK PRIOR TO CARCINOGEN TREATMENT (STUDY DURATION: 98 WK), Route [Inhibitor]: ORAL, Species: RAT, Strain/Sex: F344/MALE, Target Tissue: Type of Lesion: NASAL CAVITY: TUMOR, Dose [Carcinogen]: 1.5 MG/KG BW 3/WK FOR 20 WK, Promoter: NONE USED) 28/36 (78%), 27/36 (75%), 4%, not significant; (Carcinogen: 4-(METHYLNITROSAMINO-1-(3-PYRIDYL)-1-BUTANONE, 64091-91-4, Dose [Inhibitor]: O, 0.2 UMOL 1/D FOR 4 D ADMINISTERED PRIOR TO CARCINOGEN TREATMENT (STUDY DURATION: 116 D), Route [Inhibitor]: GAVAGE, Species: MOUSE, Strain/Sex: STRAIN A, Target Tissue: Type of Lesion: LUNG: ADENOMA, Dose [Carcinogen]: 10 UMOL ONCE 2 HR AFTER FINAL DOSE OF INHIBITOR, Promoter: NONE USED) 100%, 70%, 30%, p<0.05; (Carcinogen: N-BUTYL-N(4-HYDROXYBUTYL)NITROSAMINE (3817-11-6), Dose [Inhibitor]: 0.5 UMOL/G IN DIET BEGINNING 1 WK BEFORE CARCINOGEN EXPOSURE (STUDY DURATION: 16 WK), Route [Inhibitor]: ORAL, Species: RAT, Strain/Sex: WISTAR/MALE, Target Tissue: Type of Lesion: URINARY BLADDER: PAPILLOMA, Dose [Carcinogen]: 0.025% IN DRINKING WATER FOR 15 WK, Promoter: NONE USED) 38/40 (95%), 24/30 (80%), 16%, not significant; (Carcinogen: N-NITROSOMETHYLBENZYLAMINE [937-40-6], Dose [Inhibitor]: 0, 1 MMOL/KG DIET IMMEDIATELY POST LAST CARCINOGEN DOSE (STUDY DURATION: 25 WK), Route [Inhibitor]: ORAL, Species: RAT, Strain/Sex: F344/MALE, Target Tissue: Type of Lesion: ESOPHAGUS: TUMOR, Dose [Carcinogen]: 0.5 MG/KG BW IN 20% DMSO 3 TIMES/WK FOR 5 WK (STUDY DURATION: 25 WK), Promoter: NONE) 100%, 100%, 0%, not significant; (Carcinogen: N-NITROSOMETHYLBENZYLAMINE [937-40-6], Dose [Inhibitor]: 0, 2.5 MMOL/KG DIET IMMEDIATELY POST LAST CARCINOGEN DOSE (STUDY DURATION: 25 WK), Route [Inhibitor]: ORAL, Species: RAT, Strain/Sex: F344/MALE, Target Tissue: Type of Lesion: ESOPHAGUS: TUMOR, Dose [Carcinogen]: 0.5 MG/KG BW IN 20% DMSO 3 TIMES/WK FOR 5 WK (STUDY DURATION: 25 WK), Promoter: NONE) 100%, 100%, 0%, not significant. Besides, for the setting “Carcinogen: BENZO[A]PYRENE, 50-32-8, Dose [Inhibitor]: 0, 5 UMOL IN ACETONE 4 HR PRIOR TO CARCINOGEN DOSE (STUDY DURATION: 20 WK), Route [Inhibitor]: DERMAL, Species: MOUSE, Strain/Sex: STRAIN-A/FEMALE, Target Tissue: Type of Lesion: SKIN: TUMOR, Dose [Carcinogen]: 0.1 UMOL IN ACETONE ONCE, Promoter: 12-O-TETRADECANOYLPHORBOL-13-ACETATE, 16561-29-8”, the outcome is 70%, 90%, 29%, not significant at 15 wk; 95%, 95%, 0%, not significant at 20 wk.
